Experiment [1] deals with oxazolone-induced inflamed mouse ear. Description: Oxazolone-Induced Inflamed Mouse Ear Test (Ox-IMET). It is filed as in vivo, Adult male Cox ICR mice. Particulars: topical, 25 ul of 10% in ethanol, 24 h after challenge, vs control group, read-out: Percent Inhibition. The procedure: Oxazolone-Induced Inflamed Mouse Ear Test ("Ox-IMET")
Adult male Cox ICR mice, 25-35 g, are sensitized by applying 3% oxazolone in olive oil to the clipped abdomen of each animal using a cotton swab. One week later, the mice are challenged on the inner surface of the left ear with 3% oxazolone in aceotone. At the same time 25 ul of the test compound (10% in ethanol) is applied to the outer surface of the same ear. Twenty four hours after the challenge, the animals are sacrificed by cervical dislocation and both ears are removed. A 5 mm punch biopsy is removed from both ears and is weighed to the nearest 0.1 mg on a Cahn electrobalance. Ten animals are used per group. The study usually consists of 4 to 6 groups, of which one is a control group which is challenged on the left ear, but is not treated with a test compound. The results are expressed as percent inhibition of the swelling response compared to the control group. Statistical tests for significance between groups are made using a one way analysis of variance of the ear weight differences.

In experiment [2] the test system is arachidonic acid-induced inflamed mouse ear. Nature of the experiment: Arachidonic Acid-Induced Inflamed Mouse Ear Test. The class given is in vivo, Adult male Cox ICR mice. The procedure: Arachidonic Acid-Induced Inflamed Mouse Ear Test
All drugs are dissolved with arachidonic acid in the vehicle. At the end of 3 hours, animals are sacrificed by cervical dislocation and both ears are removed. A 5 mm punch biopsy is removed from both ears and is weighed to the nearest 0.1 mg on a Cahn electrobalance. Ten animals are used per group. The study usually consists of 4 to 6 groups, of which one is a control group which is treated on the left ear with only arachidonic acid in the vehicle. The results are expressed as percent inhibition of the swelling response compared to the control group. Statistical tests for significance between groups are made using a one way analysis of variance of the ear weight differences. ID50 values are determined by regression analysis.

Experiment [3] concerns adjuvant arthritis (modified Freund's adjuvant). Description: Adjuvant Arthritis - Therapeutic. It is filed as in vivo, Male Sprague-Dawley rats. Particulars: for Body Weights % Increase / Bone Resorption % Inhibition / Paw Volume % Decrease: 2 x/day, days 20 through 28. The procedure:
Adjuvant Arthritis Methodology
Male Sprague-Dawley rats weighing 167-170 gm are allowed to acclimate to the laboratory for at least 3 days. Ten rats are then assigned to the healthy control group and the remaining rats are assigned to the arthritic group. On day 0, the rats in the arthritic group are injected subcutaneously in the middle of their tail with a modified Freund's adjuvant (MFA) at a dosage of 0.05 ml/100 gm body weight. The MFA is made by grinding Mycobacterium butyricum (Mb) and then mixing with mineral oil at a concentration of 10 mg Mb/ml of mineral oil. This is mixed in an Omni mixer for 45 minutes.
Paw volumes and body weights are determined on days -1, 6, 13, 19, 26, and 29. On day 19, paw volume changes from day -1 are determined for the arthritic group. The rats with paw volume changes≥0.50 ml but ≤2.50 ml are randomized by paw volume changes into the treatment groups on day 20. […] On day 29, two representative rats from each treatment group are photographed, paw volumes and body weights are determined, and then the rats are sacrificed with CO2 and x-rays are taken.
The radiographs are used to grade bone resorption. Bone resorption is graded in 20 areas of the fore and hind paws. The areas for grading on the hind paw are: distal femur end, proximal tibia and tibula, distal end of the tibia and the small bone under the tibia, calcaneous, tarsus, and metatarsus. The areas on the fore paws are: radius, ulna, carpus, and metacarpus. Each area is given a grade of 0 (no resorption) or 1 (resorption) for possible grade of 20 of each animal.

The subject of experiment [4] is lipoxygenase ("LOX"). Description: inhibition of lipoxygenase in arachidonic acid metabolism. The class given is biochemical.
Experiment [5] is described as follows: antioxidant and free radical scavenging activity.
Experiment [6] in a line: oral analgesic activity. It is filed as in vivo. Particulars: "peripheral" type, compared to aspirin. The procedure: In order to determine and assess pharmacological activity, testing of these compounds in animals is carried out using various assays known to those skilled in the art. […] Examples of such known tests include the carrageenan rat edema test, the oxazolone-induced inflamed mouse ear test, and the arachidonic acid-induced inflamed mouse ear test. Anti-pyretic acitivity may be tested using art-known rat models, and analgesic acitivty may be tested in art-known models such as the acetylcholine model in mice, the Randall-Selitto model in rats, and the hot-plate test in mice. Another useful art-known test is the adjuvant arthritis test which is a useful model for assessing anti-inflammatory activity and anti-resorptive activity in a chronic, rather than acute, model.

`C#CCCCC(=O)c1cc(C(C)(C)C)c(O)c(C(C)(C)C)c1` [Compound 11, 4-(5'-hexynoyl)-2,6-di-t-butylphenol]: in experiment [1], the inhibition in vivo at 10 % came out at 34.1%. In addition, in experiment [2] (Mus musculus, 50 ug/ear topical, 3 hours, read-out: Percent Inhibition at 50 ug/ear topical dose), the inhibition in vivo at 50 µg/ear is 43.9%. In experiment [2] (topical, by regression analysis), this molecule gave an ID50 of 20.7 ug/ear. In experiment [3] (5 mg/kg, oral), the “Body Weights % Increase” value is listed as 36%, the “Bone Resorption % Inhibition” value came to 37% and the “Paw Volume % Decrease” value stood at 75%. Also, in experiment [3] (15 mg/kg, oral), the “Body Weights % Increase” value stood at 34%, the “Bone Resorption % Inhibition” value is 50% and the “Paw Volume % Decrease” value worked out at 83%. For the same molecule, in experiment [3] (arthritic animal models), the “decrease of bone resorption in arthritic animal models” value was “ability to decrease bone resorption”. Also, the “oral anti-arthritic activity in a rat adjuvant arthritis model” value in experiment [3] (oral, dosed therapeutically) is given as “anti-arthritic activity”. In addition, the “inhibition of lipoxygenase (LOX)” value in experiment [4] is on record as “dual inhibitor”. The “antioxidant and free radical scavenging activity” value in experiment [5] is “antioxidant and free radical scavenging activity”. In addition, the oral analgesic activity result in experiment [6] is listed as “superior to aspirin”.

The values are drawn from US4708966A, “Novel anti-inflammatory agents, pharmaceutical compositions and methods for reducing inflammation” (The Procter & Gamble Company, priority 1986, dated 1987).
